# Measured values taken from ChEMBL document CHEMBL4825699, “Metabolic and conformational stabilization of a VEGF-mimetic beta-hairpin peptide by click-chemistry” (Eur J Med Chem, 2021).
# Calls of active or inactive are those of the source. The rule behind the calls is not given here.
# Assays:
# HUVEC [1] = assay: Cytotoxicity against human HUVEC assessed as reduction in cell viability at 50 nM measured after 48 hrs by CyQuant NF Cell Proliferation assay; type: cell-based; settings: 0.05 µM
# HUVEC [2] = assay: Binding affinity to VEGFR in human HUVEC assessed as induction of cell proliferation measured after 24 to 48 hrs by CyQuant NF Cell Proliferation assay; settings: dose 25-50 nM, time 24-48 hrs
# HUVEC [3] = assay: Binding affinity to VEGFR in human HUVEC assessed as induction of cell proliferation at 25 to 50 nM measured after 48 hrs by CyQuant NF Cell Proliferation assay relative to control; settings: dose 25-50 nM
# HUVEC [4] = assay: Binding affinity to VEGFR in human HUVEC assessed as induction of cell proliferation at 50 nM measured after 48 hrs in presence of 250 nM VEGFR1D2 by CyQuant NF Cell Proliferation assay
# HUVEC [5] = assay: Pro-angiogenic activity in human HUVEC assessed as organization into capillary network formation by measuring increase in branch points number counting at 50 nM measured after 6 hrs by inverted microscopy relative to HPLW; type: functional
# [6] = Metabolic stability of the compound in 50% human serum incubated for 120 mins by RP-HPLC analysis; type: ADME, cell-free; settings: read-out: Stabilty
# HUVEC [7] = assay: Binding affinity to VEGFR in human HUVEC assessed as induction of cell proliferation at 25 to 50 nM measured after 48 hrs by CyQuant NF Cell Proliferation assay relative to HPLW; settings: dose 25-50 nM
# HUVEC [8] = assay: Binding affinity to VEGFR in human HUVEC assessed as induction of cell proliferation at 25 to 50 nM measured after 48 hrs by CyQuant NF Cell Proliferation assay relative to Ac-HPLW-NH2; settings: dose 25-50 nM
# HUVEC [9] = assay: Pro-angiogenic activity in human HUVEC assessed as organization into capillary network formation by measuring increase in branch points number counting at 50 nM measured after 6 hrs by inverted microscopy relative to Ac-HPLW-NH2; type: functional
# [10] = Metabolic stability of the compound in 50% human serum assessed as half life by RP-HPLC analysis; type: ADME, cell-free
# [11] = Metabolic stability of the compound in 50% human serum assessed as drug degradation incubated for 120 mins by RP-HPLC analysis; type: ADME, cell-free; settings: read-out: Drug degradation
remaining at 2 h [6],half-life [10],metabolised at 2 h [11],Compound,Activity (HUVEC [1]),Activity (HUVEC [2]),Activity (HUVEC [3]),Activity (HUVEC [4]),Activity (HUVEC [5]),Activity (HUVEC [7]),Activity (HUVEC [8]),Activity (HUVEC [9])
100%,–,–,CC[C@H](C)[C@@H]1NC(=O)[C@@H](NC(=O)[C@H](CC(C)C)NC(=O)[C@H](CC(C)C)NC(=O)[C@H](CCC(N)=O)NC(=O)[C@H](CCCCN)NC(C)=O)CCCc2cn(nn2)CCC[C@@H](C(=O)N[C@@H](Cc2ccc(O)cc2)C(=O)N[C@@H](Cc2c[nH]c3ccccc23)C(=O)N[C@H](C(=O)N[C@@H](CO)C(N)=O)[C@@H](C)O)NC(=O)[C@@H]2CCCN2C(=O)[C@H](CCCNC(=N)N)NC(=O)[C@H](CC(=O)O)NC(=O)CNC(=O)[C@H](CO)NC(=O)[C@H](CCCNC(=N)N)NC1=O,Non-Toxic,Toxic,92%,inactive,13%,37%,30%,28%
–,25 min,100%,Ac-KQLLWIRSGDRPWYYTS-NH2,Non-Toxic,Dose-Dependent Effect,–,inactive,–,–,–,–
–,25 min,100%,H-KQLLWIRSGDRPWYYTS-OH,Non-Toxic,Dose-Dependent Effect,–,inactive,–,–,–,–
